Assay results taken from patent US8247377B2, “Non-steroidal glucocorticoid inhibitors and their use in treating inflammation, allergy and auto-immune conditions” (Glaxo Group Limited, priority 2006, dated 2012).

Experiments:
NFκB = NFκB agonist assay in A549 SPAP cells; type: cell-based; conditions: Homo sapiens; for IC50: A549 SPAP cells, TNFα 3.2 ng/ml, read-out: pIC50 for the NFkB assay (converted);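 for average maximum asymptote in the NFkB assay: maximum inhibition of the TNFα-induced NFκB-driven signal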
From the text: Human lung carcinoma A549 cell line (ECACC No. 86012804) has been stably transfected in house with a plasmid containing an ELAM promoter sequence that has a NFκB response element within it. Stimulation of the cell line with TNFα results in intracellular signal transduction and ultimately translocation of NFκB into the nucleus. This activates the inserted DNA sequence resulting in transcription of the integrated SPAP gene, which is quantified using a colorimetric assay. […] The stably transfected cell line was grown as a monolayer in DMEM supplemented with FCS-HI (10%), Non-essential amino acids (1%), L-Glutamine (2 mM), Pen/Strep (1%) and Geneticin (50 mg/ml).
A 70% confluent T225 flask of A549 SPAP cells was harvested by centrifugation for 5 min at 200 g, resuspended in assay buffer (DMEM supplemented with 10% FCS 2×HI, 2 mM L-Glutamine, 1% Pen/Strep and Non essential amino acids) and diluted to 0.16×10^6/ml. 60 μl of cell solution was dispensed to each well of clear Nunc 384-well plates, containing compound at the required concentration. Plates were incubated for 1 h at 37° C., 95% humidity, 5% CO2 before 10 μl of TNFα was added at final concentration of 3.2 ng/ml and then returned to the cell incubator for 15 h. Plates were equilibrated to room temperature for 1 h prior to the addition of 25 μl of pNPP buffer (1M Diethanolamine pH 9.8, 0.5 mM MgCl2, 0.28M NaCl, 2 mg/ml pNPP) to each well of assay plates. The plates were covered to protect the reagents from light, and then incubated at room temperature for approximately 1 hour before reading them on an Ascent using a 405 nm single filter. Dose response curves were constructed from which pIC50 values were estimated.

progesterone receptor = biological target: T1, progesterone receptor (Homo sapiens, UniProt P06401); assay: Assay for progesterone receptor activity (CV-1 cells, PRb-BacMam/MMTV-BacMam); type: cell-based; conditions: CV-1 cells transduced with PRb-BacMam and MMTV-BacMam; read-out: pEC50 progesterone receptor activity (converted)
T1 construct: expressed in transfected cells; host or cells: CV-1 cells transduced with PRb-BacMam and MMTV-BacMam
T1 sequence (P06401 1-933): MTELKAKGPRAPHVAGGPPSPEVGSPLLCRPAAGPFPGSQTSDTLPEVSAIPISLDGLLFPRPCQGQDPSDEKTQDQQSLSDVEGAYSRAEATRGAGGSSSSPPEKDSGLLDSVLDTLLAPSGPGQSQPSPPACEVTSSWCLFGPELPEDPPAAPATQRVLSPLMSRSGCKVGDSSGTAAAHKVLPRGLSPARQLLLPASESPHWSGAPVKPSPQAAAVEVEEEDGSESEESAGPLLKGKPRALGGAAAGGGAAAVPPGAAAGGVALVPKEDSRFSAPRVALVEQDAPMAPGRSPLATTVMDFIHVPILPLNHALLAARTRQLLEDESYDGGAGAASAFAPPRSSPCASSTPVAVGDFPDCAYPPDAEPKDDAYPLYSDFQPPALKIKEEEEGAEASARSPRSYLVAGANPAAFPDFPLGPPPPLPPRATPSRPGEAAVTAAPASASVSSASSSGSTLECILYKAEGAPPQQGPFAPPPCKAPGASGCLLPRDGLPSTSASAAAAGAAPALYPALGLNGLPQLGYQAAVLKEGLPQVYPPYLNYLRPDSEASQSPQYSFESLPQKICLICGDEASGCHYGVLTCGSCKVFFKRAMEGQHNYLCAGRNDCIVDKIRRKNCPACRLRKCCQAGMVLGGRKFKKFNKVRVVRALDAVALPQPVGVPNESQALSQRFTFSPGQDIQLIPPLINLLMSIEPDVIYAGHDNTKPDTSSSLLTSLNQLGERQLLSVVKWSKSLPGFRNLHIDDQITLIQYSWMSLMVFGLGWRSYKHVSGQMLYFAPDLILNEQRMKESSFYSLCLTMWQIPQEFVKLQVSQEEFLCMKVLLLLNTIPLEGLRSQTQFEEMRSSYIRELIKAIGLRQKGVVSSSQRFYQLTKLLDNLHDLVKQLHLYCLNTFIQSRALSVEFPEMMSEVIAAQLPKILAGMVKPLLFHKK
Experimental: A T225 flask of CV-1 cells at a density of 80% confluency was washed with PBS, detached from the flask using 0.25% trypsin and counted using a Sysmex KX-21N. Cells were diluted in DMEM containing 10% Hyclone, 2 mM L-Glutamate and 1% Pen/Strep at 140 cells/μl and transduced with 10% PRb-BacMam and 10% MMTV-BacMam. […] of suspension cells were dispensed to each well of white Nunc 384-well plates, containing compounds at the required concentration. After 24 h 10 μl of Steadylite were added to each well of the plates. Plates were incubated in the dark for 10 min before reading them on a Viewlux reader. Dose response curves were constructed from which pEC50 values were estimated.

glucocorticoid receptor = biological target: T2, glucocorticoid receptor (Homo sapiens, UniProt P04150); assay: Glucocorticoid receptor binding assay (fluorescence polarisation); conditions: competition with Alexa 555 fluorescently-labelled dexamethasone derivative, full length glucocorticoid receptor; read-out: glucocorticoid binding pIC50 (converted)
T2 construct: a partially purified full length glucocorticoid receptor
T2 sequence (P04150 1-777): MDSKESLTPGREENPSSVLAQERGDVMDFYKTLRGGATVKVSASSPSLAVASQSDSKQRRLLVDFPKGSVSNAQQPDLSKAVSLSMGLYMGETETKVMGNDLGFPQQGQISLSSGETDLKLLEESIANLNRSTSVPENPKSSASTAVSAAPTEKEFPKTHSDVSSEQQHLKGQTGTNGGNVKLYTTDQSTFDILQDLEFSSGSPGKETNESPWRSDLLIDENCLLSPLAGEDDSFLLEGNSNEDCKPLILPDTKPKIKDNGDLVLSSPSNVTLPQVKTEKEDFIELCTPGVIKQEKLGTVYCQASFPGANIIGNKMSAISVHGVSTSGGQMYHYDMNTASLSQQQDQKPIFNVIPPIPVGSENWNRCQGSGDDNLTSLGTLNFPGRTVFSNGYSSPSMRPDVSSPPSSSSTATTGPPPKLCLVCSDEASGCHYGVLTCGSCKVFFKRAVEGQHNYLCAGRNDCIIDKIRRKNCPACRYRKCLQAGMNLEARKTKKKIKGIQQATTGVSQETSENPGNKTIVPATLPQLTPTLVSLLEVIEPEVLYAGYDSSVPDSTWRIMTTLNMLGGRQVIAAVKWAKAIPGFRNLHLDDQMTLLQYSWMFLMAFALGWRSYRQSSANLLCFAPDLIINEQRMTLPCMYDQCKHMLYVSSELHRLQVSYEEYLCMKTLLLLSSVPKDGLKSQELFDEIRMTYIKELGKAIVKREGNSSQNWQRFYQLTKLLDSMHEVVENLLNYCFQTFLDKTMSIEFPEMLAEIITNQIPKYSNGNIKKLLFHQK
Experimental: Compounds were solvated and diluted in DMSO, and transferred directly into assay plates. Fluorescent dexamethasone and a partially purified full length glucocorticoid receptor were added to the plates, together with buffer components to stabilise the GR protein and incubated at room temperature for 2 hrs in the dark. Binding of each compound was assessed by analysing the displacement of fluorescent ligand by measuring the decrease in fluorescence polarisation signal from the mixture. Dose response curves were constructed from which pIC50 values were estimated.

MMTV promoter = assay: MMTV agonist assay in A549 MMTV cells; type: cell-based; conditions: Homo sapiens, A549, 6 h, >85% = full agonist, >20% and <85% = partial or efficacy selective agonist, read-out: average maximum asymptote in the MMTV agonist assay
From the text: Human lung carcinoma A549 cell line (ECACC No. 86012804) has been stably transfected in house with a plasmid containing a renilla luciferase reporter with an MMTV promoter. Stimulation of the cell line with GR agonists results in intracellular signal transduction and ultimately translocation of GR into the nucleus. This activates the inserted DNA sequence resulting in transcription of the integrated luciferase gene, which is quantified using a light emission. The stably transfected cell line was grown as a monolayer in DMEM supplemented with FCS-HI (10%), Non-essential amino acids (1%), L-Glutamine (2 mM), Pen/Strep (1%) and Geneticin (50 mg/ml).
A 90% confluent T175 flask of A549 MMTV cells was harvested by centrifugation for 5 min at 200 g, resuspended in assay buffer (DMEM supplemented with 10% FCS 2×HI, 2 mM Glutamax, Non essential amino acids and 25 mM HEPES) and diluted to 0.1×10^6/ml. 70 μl of cell solution was dispensed to each well of white Nunc 384-well plates, containing compound at the required concentration. Plates were incubated for 6 h at 37° C., 95% humidity, 5% CO2. Plates were equilibrated to room temperature for 1 h prior to the addition of 10 μl of Renilla substrate to each well of assay plates. The plates were covered to protect the reagents from light, and then incubated at room temperature for approximately 15 mins before reading them on a Viewlux. Dose response curves were constructed from which pEC50 and maximum asymptote values were estimated.

Structure (SMILES) | IC50 (NFκB) [µM] | EC50 (progesterone receptor) [µM] | IC50 (glucocorticoid receptor) [µM] | Emax (MMTV promoter) [%] | Emax (NFκB; A549, A549 SPAP cells, >85% = full agonist, ≧20% = partial or full agonist, read-out: average maximum asymptote in the NFkB assay) [%]
Nc1c(C(=O)NCC(O)(CNC(=O)c2c(C(F)(F)F)cccc2C(F)(F)F)C(F)(F)F)cnn1-c1ccc(F)cc1 (single isomer, unassigned) [Example 15 Enantiomer 2, 5-amino-N-{2-[({[2,6-bis(trifluoromethyl)phenyl]carbonyl}amino)methyl]-3,3,3-trifluoro-2-hydroxypropyl}-1-(4-fluorophenyl)-1H-pyrazole-4-carboxamide] | < 1 | – | – | – | –
Nc1c(C(=O)NCC(O)(CNC(=O)c2c(F)cccc2F)C(F)(F)F)cnn1-c1ccc(F)cc1 (racemic) [Example 6 (racemic), 5-Amino-N-[2-({[(2,6-difluorophenyl)carbonyl]amino}methyl)-3,3,3-trifluoro-2-hydroxypropyl]-1-(4-fluorophenyl)-1H-pyrazole-4-carboxamide] | – | > 1 | – | – | –
Nc1c(C(=O)NCC(O)(CNC(=O)c2c(F)cccc2OC(F)F)C(F)(F)F)cnn1-c1ccc(F)cc1 (racemic) [Example 48 (racemic), 5-Amino-N-(2-{[({2-[(difluoromethyl)oxy]-6-fluorophenyl}carbonyl)amino]methyl}-3,3,3-trifluoro-2-hydroxypropyl)-1-(4-fluorophenyl)-1H-pyrazole-4-carboxamide] | < 1 | > 1 | ≤ 0.316 | – | –
Nc1c(C(=O)NCC(O)(CNC(=O)c2c(OC(F)F)cccc2OC(F)F)C(F)(F)F)cnn1-c1ccc(F)cc1 (racemic) [Example 20 (racemic), 5-amino-N-(2-{[({2,6-bis[(difluoromethyl)oxy]phenyl}carbonyl)amino]methyl}-3,3,3-trifluoro-2-hydroxypropyl)-1-(4-fluorophenyl)-1H-pyrazole-4-carboxamide] | – | > 1 | ≤ 0.316 | – | –
Nc1c(C(=O)NCC(O)(CNC(=O)c2c(F)cccc2Cl)C(F)(F)F)cnn1-c1ccc(F)cc1 (single isomer, unassigned) [Example 7 Enantiomer 2, 5-Amino-N-[2-({[(2-chloro-6-fluorophenyl)carbonyl]amino}methyl)-3,3,3-trifluoro-2-hydroxypropyl]-1-(4-fluorophenyl)-1H-pyrazole-4-carboxamide] | – | – | – | 20 to 85 | ≥ 20
CCN(CC(O)(CNC(=O)c1cnn(-c2ccc(F)cc2)c1N)C(F)(F)F)C(=O)c1c(Cl)cccc1Cl (single isomer, unassigned) [Example 2 Enantiomer 1, 5-Amino-N-(2-{[[(2,6-dichlorophenyl)carbonyl](ethyl)amino]methyl}-3,3,3-trifluoro-2-hydroxypropyl)-1-(4-fluorophenyl)-1H-pyrazole-4-carboxamide] | < 1 | > 1 | ≤ 0.316 | – | –
Nc1c(C(=O)NCC(O)(CN(CCF)C(=O)c2c(OC(F)F)cccc2OC(F)F)C(F)(F)F)cnn1-c1ccc(F)cc1 (racemic) [Example 32 (racemic), 5-amino-N-(2-{[({2,6-bis[(difluoromethyl)oxy]phenyl}carbonyl)(2-fluoroethyl)amino]methyl}-3,3,3-trifluoro-2-hydroxypropyl)-1-(4-fluorophenyl)-1H-pyrazole-4-carboxamide] | < 1 | > 1 | ≤ 0.316 | – | –
Nc1c(C(=O)NCC(O)(CNC(=O)c2c(F)cccc2Cl)C(F)(F)F)cnn1-c1ccc(F)cc1 (single isomer, unassigned) [Example 7 Enantiomer 1, 5-Amino-N-[2-({[(2-chloro-6-fluorophenyl)carbonyl]amino}methyl)-3,3,3-trifluoro-2-hydroxypropyl]-1-(4-fluorophenyl)-1H-pyrazole-4-carboxamide] | < 1 | > 1 | – | – | –
CCN(CC(O)(CNC(=O)c1cnn(-c2ccc(F)cc2)c1N)C(F)(F)F)C(=O)c1c(F)cccc1Cl (single isomer, unassigned) [Example 4 Enantiomer 1, 5-Amino-N-(2-{[[(2-chloro-6-fluorophenyl)carbonyl](ethyl)amino]methyl}-3,3,3-trifluoro-2-hydroxypropyl)-1-(4-fluorophenyl)-1H-pyrazole-4-carboxamide] | < 1 | > 1 | ≤ 0.316 | – | –
